# Values of other authors, collected in patent US6436414B1, “Active ingredient combinations or adducts of biotin and/or biotin derivatives and cyclodextrins and use of such active ingredient combinations in cosmetic preparations” (Beiersdorf AG, priority 1999, dated 2002).
# Settings: according to the literature
compound,measurement,value
"O=C(O)CCCC[C@@H]1SC[C@@H]2NC(=O)N[C@@H]21 [biotin, D-cis-hexahydro-2-oxothieno[3,4-d]imidazole-4-valeric acid]",solubility limit of biotin in aqueous solution,about 0.04%
